Source: patent publication US9518018B2, “3-alkoxy, thioalkyl and amino-4-amino-6-(substituted)picolinates and their use as herbicides” (Dow AgroSciences LLC, priority 2011, dated 2016)

What was measured:
[1] = system: ABUTH: velvetleaf (Abutilon theophrasti); assay: Post-Emergent Test I herbicidal activity; assay type: in vivo; details: Abutilon theophrasti, post-emergence, 336 h, read-out: Visual Growth Reduction (%)-14 Days after Application ABUTH; for pest or weed control at 140 g/ha: Table 3, 140 g ai/ha; for pest or weed control at 70 g/ha: Table 3, 70 g ai/ha
How it was run: (§1)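 Visual injury ratings (0 = none, 100 = complete kill) taken 14 d after treatment, compared with untreated plants, feed probit-derived GR20/GR50/GR80. Application: overhead spray, 187 L/ha, highest rate and ½×-1/16× dilutions in acetone-DMSO-based aqueous spray mix with crop oil and surfactant, onto plants grown 7-21 d to first or second true leaf.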

[2] = system: CHEAL: lambsquarters (Chenopodium album); assay: Post-Emergent Test I herbicidal activity; assay type: in vivo; details: Chenopodium album, post-emergence, 336 h, read-out: Visual Growth Reduction (%)-14 Days after Application CHEAL; for pest or weed control at 140 g/ha: Table 3, 140 g ai/ha; for pest or weed control at 70 g/ha: Table 3, 70 g ai/ha
How it was run: as §1

[3] = system: CYPES: yellow nutsedge (Cyperus esculentus); assay: Post-Emergent Test I herbicidal activity; assay type: in vivo; details: post-emergence, 336 h, read-out: Visual Growth Reduction (%)-14 Days after Application CYPES; for pest or weed control at 140 g/ha: Table 3, 140 g ai/ha; for pest or weed control at 70 g/ha: Table 3, 70 g ai/ha
How it was run: as §1

[4] = system: ECHCG: barnyardgrass (Echinochloa crus-galli); assay: Post-Emergent Test I herbicidal activity; assay type: in vivo; details: post-emergence, 336 h, read-out: Visual Growth Reduction (%)-14 Days after Application ECHCG; for pest or weed control at 140 g/ha: Table 3, 140 g ai/ha; for pest or weed control at 70 g/ha: Table 3, 70 g ai/ha
How it was run: (§2)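 Plants grown in greenhouse to first/second true leaf. Compound formulated in acetone:DMSO 97:3 then diluted into crop-oil/surfactant aqueous mix; serial twofold rates. Sprayed at 187 L/ha, 43 cm above canopy; solvent-blank controls. Scored visually at 14 d; probit fit for GR values.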

[5] = system: EPHHL: wild poinsettia (Euphorbia heterophylla); assay: Post-Emergent Test I herbicidal activity; assay type: in vivo; details: post-emergence, 336 h, read-out: Visual Growth Reduction (%)-14 Days after Application EPHHL; for pest or weed control at 140 g/ha: Table 3, 140 g ai/ha; for pest or weed control at 70 g/ha: Table 3, 70 g ai/ha
How it was run: as §1

[6] = system: ORYSA: rice (Oryza sativa); assay: Post-Emergent Test I herbicidal activity; assay type: in vivo; details: post-emergence, 336 h, read-out: Visual Growth Reduction (%)-14 Days after Application ORYSA; for pest or weed control at 140 g/ha: Table 3, 140 g ai/ha; for pest or weed control at 70 g/ha: Table 3, 70 g ai/ha
How it was run: as §2

[7] = system: ZEAMX: corn (Zea mays); assay: Post-Emergent Test I herbicidal activity; assay type: in vivo; details: Zea mays, post-emergence, 336 h, read-out: Visual Growth Reduction (%)-14 Days after Application ZEAMX; for pest or weed control at 140 g/ha: Table 3, 140 g ai/ha; for pest or weed control at 70 g/ha: Table 3, 70 g ai/ha
How it was run: as §1

Structure (SMILES) | pest or weed control at 140 g/ha [1] [%] | pest or weed control at 140 g/ha [2] [%] | pest or weed control at 140 g/ha [3] [%] | pest or weed control at 140 g/ha [4] [%] | pest or weed control at 140 g/ha [5] [%] | pest or weed control at 140 g/ha [6] [%] | pest or weed control at 140 g/ha [7] [%] | melting point [°C] | pest or weed control at 70 g/ha [1] [%] | pest or weed control at 70 g/ha [2] [%] | pest or weed control at 70 g/ha [3] [%] | pest or weed control at 70 g/ha [4] [%] | pest or weed control at 70 g/ha [5] [%] | pest or weed control at 70 g/ha [6] [%] | pest or weed control at 70 g/ha [7] [%]
COC(=O)c1nc(-c2ccc(Cl)cc2)c(F)c(N)c1OC [Compound 31, methyl 4-amino-6-(4-chlorophenyl)-5-fluoro-3-methoxypicolinate] | 100 | 100 | 100 | 95 | 100 | 15 | 85 | 93 to 94 |  |  |  |  |  |  | 
COC(=O)c1nc(-c2ccc(Cl)c(F)c2)c(F)c(N)c1OC [Compound 32] | 95 | 100 | 100 | 90 | 100 | 0 | 75 | 109 to 110 |  |  |  |  |  |  | 
COC(=O)c1nc(-c2ccc(C(F)(F)F)cc2)c(F)c(N)c1OC [Compound 35] | 75 | 100 | 100 | 80 | 100 | 0 | 70 | 97 to 99 |  |  |  |  |  |  | 
COC(=O)c1nc(-c2ccc(F)cc2)c(F)c(N)c1OC [Compound 36] | 100 | 100 | 100 | 0 | 100 | 0 | 60 | 141 to 143 |  |  |  |  |  |  | 
COC(=O)c1nc(-c2ccc3c(c2)OCO3)c(F)c(N)c1OC [Compound 37] | 55 | 100 | 100 | 100 | 100 | 0 | 75 | 110 to 112 |  |  |  |  |  |  | 
COC(=O)c1nc(-c2ccc(C(F)(F)F)c(F)c2F)c(F)c(N)c1OC [Compound 38] | 85 | 90 | 50 | 10 | 100 | 0 | 75 | 139 to 141 |  |  |  |  |  |  | 
COC(=O)c1nc(-c2cc(F)c(Cl)cc2F)c(F)c(N)c1OC [Compound 39] |  |  |  |  |  |  |  | 120 to 123 | 80 | 100 | 100 | 80 | 100 | 0 | 75
COC(=O)c1nc(-c2ccc(C(F)(F)F)nc2)c(F)c(N)c1OC [Compound 40] | 80 | 100 | 100 | 50 | 100 | 0 | 70 | 130 to 132 |  |  |  |  |  |  | 
COC(=O)c1nc(-c2ccc(Cl)c(N(C)C)c2F)c(F)c(N)c1OC [Compound 43] | 90 | 100 | 50 | 80 | 100 | 0 | 70 | 113 to 115 |  |  |  |  |  |  | 
COC(=O)c1nc(-c2ccc(Cl)cc2)c(Cl)c(N)c1OC [Compound 44, methyl 4-amino-5-chloro-6-(4-chlorophenyl)-3-methoxypicolinate] | 50 | 100 | 100 | 0 | 0 | 0 | 15 | 139 to 141 |  |  |  |  |  |  | 
COc1c(C(=O)O)nc(-c2ccc(Cl)c(F)c2F)c(F)c1N [Compound 48] | 90 | 100 | 100 | 90 | 100 | 0 | 80 | 151 |  |  |  |  |  |  | 
COc1c(C(=O)O)nc(-c2ccc(Cl)c(F)c2)c(F)c1N [Compound 49] | 100 | 100 | 100 | 100 | 100 | 25 | 90 | 137 |  |  |  |  |  |  | 
COc1c(C(=O)O)nc(-c2ccc(C(F)(F)F)cc2)c(F)c1N [Compound 50] | 90 | 90 | 100 | 70 | 100 | 30 | 75 | 135 to 137 |  |  |  |  |  |  | 
COc1c(C(=O)O)nc(-c2ccc3c(c2)OCO3)c(F)c1N [Compound 53] | 80 | 100 | 100 | 80 | 0 | 15 | 75 | 223 to 225 |  |  |  |  |  |  | 
COc1c(C(=O)O)nc(-c2ccc(C(F)(F)F)c(F)c2F)c(F)c1N [Compound 56] | 80 | 90 | 50 | 100 | 100 | 10 | 75 | 133 to 135 |  |  |  |  |  |  | 
COc1c(C(=O)O)nc(-c2cc(F)c(Cl)cc2F)c(F)c1N [Compound 57] |  |  |  |  |  |  |  | 153.5 to 155 | 85 | 100 | 70 | 90 | 100 | 0 | 75
